Entries after “also recorded” stand apart in the source; their conditions may differ.
What was measured:
Format in all cases: cell-based, human
[1] = system: intracellular sphingolipids, MOLT-4; experiment: LC/MS/MS analysis of intracellular sphingolipids, MOLT-4; conditions: for increase in corresponding dihydroceramide over sphinganine+GT-11 alone: MOLT-4, fatty acid with sphinganine+GT-11, six hours, P<0.05
Experimental: (§1) LC/MS/MS analysis of intracellular sphingolipids. Sphingolipids were separated using an Agilent 1200 HPLC (LC) and determined by ESI/MS/MS performed on a AB SCIEX 4000 QTRAP Hybrid Triple Quadrupole/Linear Ion Trap mass spectrometer (MS), operating in a multiple reaction monitoring positive ionization mode as described previously with moderate modifications (25). Briefly, 50 μL of a solution (1 μM) of internal sphingolipid standards (including -sphingosine, -sphinganine, -sphingosine-1-phosphate, and -ceramide) was added to each cell pellet sample. Lipids of each sample were extracted twice with 2 mL of the ethyl acetate/isopropyl alcohol/water (60:28:12; v:v) solvent system. Supernatants were transferred to glass tubes (Kimble Chase) and evaporated under air (10 PSI) at 40° C. After reconstitution in methanol (4 mL), 1 ml of each sample was separated for the determination of lipid phosphate. Remaining sample (3 mL) was dried and used for sphingolipid quantification. For ESI/MS/MS, the dried lipid sample was dissolved in mobile phase A. Samples were injected (10 μL) and separated on a Spectra C8SR, 150×3.0 mm, 3-μm particle size column using gradient-elution (mobile phase A/B, prepared as previously described).
Data acquisition, peak integration and analyte quantitation were performed using ABI/SCIEX Analyst 1.4.2 Software. Sphingolipid data were normalized to lipid phosphate as previously described (26). Briefly, samples were dried under air (10 PSI) and lipids were extracted using the method of Bligh and Dyer (27). Of importance for phosphate assay, only Kimble Chase disposable borosilicate tubes were used for minimal sample contamination. […] Samples were then incubated with ammonium molybdate and ascorbic acid as previously described, and absorbance ([…]) was read using a SpectraMax.
Cells were treated for 48 hours with Sa (0-4 μM)+/−GT-11 (0.5 μM) with or without C18:0-, C22:0- or C22:1-fatty acids. Cytotoxicity was measured using DIMSCAN, and data was normalized to control and plotted as survival fraction (y-axis). […]

[2] = system: intracellular sphingolipids, COG-LL-332; experiment: LC/MS/MS analysis of intracellular sphingolipids, COG-LL-332; conditions: for increase in corresponding dihydroceramide over sphinganine+GT-11 alone: COG-LL-332, fatty acid with sphinganine+GT-11, six hours, P<0.05
Experimental: as §1
Data acquisition, peak integration and analyte quantitation were performed using ABI/SCIEX Analyst 1.4.2 Software. Sphingolipid data were normalized to lipid phosphate as previously described (26). Briefly, samples were dried under air (10 PSI) and lipids were extracted using the method of Bligh and Dyer (27). Of importance for phosphate assay, only Kimble Chase disposable borosilicate tubes were used for minimal sample contamination. Organic phase was transferred to glass tubes and a known volume was separated to a new tube and dried at 80° C. Phosphate standards and dried samples were then heated with ashing buffer (water:10 N:70% [40:9:1]) at 160° C. overnight. Samples were then incubated with ammonium molybdate and ascorbic acid as previously described, and absorbance ([…]) was read using a SpectraMax.
Cells were treated for 48 hours with Sa (0-4 μM)+/−GT-11 (0.5 μM) with or without C18:0-, C22:0- or C22:1-fatty acids. Cytotoxicity was measured using DIMSCAN, and data was normalized to control and plotted as survival fraction (y-axis). Gray and white symbols represent long and very long chain fatty acids, respectively. Gray lines encompass data used for sphingolipid correlation analysis with cytotoxicity. Datum point, mean; error bar, SEM. […]
Cytotoxicity was measured using DIMSCAN, and data was normalized to control and plotted as survival fraction (y-axis).

[3] = system: pre-T acute lymphoblastic leukemia cell lines CCRF-CEM, MOLT-4, COG-LL-317 and COG-LL-332; experiment: DIMSCAN cytotoxicity assay across the four pre-T ALL cell lines; conditions: COG-LL-317, COG-LL-332, CCRF-CEM, 4-HPR 0-9 μM, 48 hours
Description: Cell culture. The pre-T acute lymphoblastic leukemia cell lines MOLT-4 and CCRF-CEM, small cell lung cancer cell line NCI-H146, non-small cell lung cancer cell line NCI-H1792, colon cancer cell lines LoVo and HT-29, and breast cancer cell line MCF-7, were purchased from American Type Culture Collection, Manassas, Va., and grown at 20%/5% and 5%/5%, respectively. COG-LL-317 and COG-LL-332 pre-T acute lymphoblastic leukemia cell lines were obtained from the TTUHSC Cancer Center Cell Repository and grown at 5%/5%. Cell line identities were verified by short tandem repeat analysis and mycoplasma testing was performed. Cell lines were maintained in RPMI-1640 medium supplemented with 10% fetal bovine serum (FBS, Invitrogen) in humidified, 37° C. incubators. […]
Cytotoxicity Assay. Cytoxicity is determined using the DIMSCAN assay system (R. Proffitt et al., Cytometry 24, 204-213 (1996); T. Frgala et al., Proc. AACR, 36, 303 (1995). The system employs digital imaging microscopy to quantify viable cells, which selectively accumulate fluorescein diacetate to become brightly fluorescent. The system is capable of measuring cytotoxicity over a 4-5 log dynamic range by quenching the residual fluorescence of dead and dying cells with eosin Y and quantifying the total fluorescence of viable cells using digital thresholding. Measured fluorescence is directly proportionate to the number of viable cells. […]

CCCCCCCC/C=C\CCCCCCCCCCCC(=O)O [C22:1-fatty acid]
increase in corresponding dihydroceramide over sphinganine+GT-11 alone [1]: significant increases
increase in corresponding dihydroceramide over sphinganine+GT-11 alone [2]: significant increases

CCCCCCCCCCCCCCCCCCCCCC(=O)O [C22:0-fatty acid]
increase of C22:0-dihydroceramide over sphinganine+GT-11 alone ([1]; MOLT-4, fatty acid with sphinganine 1 μM plus GT-11 0.5 μM, six hours, P<0.01): 29 fold
increase in corresponding dihydroceramide over sphinganine+GT-11 alone [1]: significant increases
effect of fatty acid on fenretinide (4-HPR) cytotoxicity [3]: enhanced; also recorded: significantly increased cytotoxicity
increase of C22:0-dihydroceramide compared to 4-HPR alone ([2]; COG-LL-332, fatty acid with 4-HPR 1.1 μM, six hours, P<0.001): 8 fold
increase of C22:0-dihydroceramide over sphinganine+GT-11 alone ([2]; COG-LL-332, fatty acid with sphinganine 1 μM plus GT-11 0.5 μM, six hours, P<0.001): 57 fold
increase in corresponding dihydroceramide over sphinganine+GT-11 alone [2]: significant increases
